According to patent publication US5149714A, “Antidepressants” (Merrell Dow Pharmaceuticals Inc., priority 1990, dated 1992):
Where two headings read alike, the source gives them in different places.

System: β-adrenergic receptors
Conditions: Desipramine 5 mg/kg, i.p.; for [^3 H]-DHA Specifically Bound: mean ± SEM, six animals per group
Experimental: The number of β-adrenergic receptors in rat cerebral cortical membranes was measured after a 4 day and 14 day course of one of the following treatments:
a) saline control (intraperitoneal injection--i.p.)
c) fluoxetine (10 mg/kg/day, i.p.) or (10 mg/kg bid, i.p.)
Male Sprague-Dawley rats (175-200 g) were assigned randomly to one of the four treatment groups above and were treated as indicated for either 4 or 14 days. The animals were sacrificed 24 hours after their last treatment and cerebral cortical membranes were isolated. These membranes were assayed for β-adrenergic receptor number by the method of Bylund and Snyder [Mol. Pharmacol. 12, 568 (1976)] by measuring the amount of [3H]dihydro-alprenolol ([^3 H]-DHA) bound.

## CNCCC(Oc1ccc(C(F)(F)F)cc1)c1ccccc1 (stereo not shown) [Fluoxetine, fluoxetine]
A) 14 days, Fluoxetine 10 mg/kg
  [^3 H]-DHA Specifically Bound, % Control: 91 % Control
A) 14 days, Fluoxetine 10 mg/kg, saline 41.8 ± 1.4, * p < 0.05 vs saline, + P < 0.05 vs Desipramine
  [^3 H]-DHA Specifically Bound: 37.9 ± 1.8 fmol/mg protein
B) 4 days, Fluoxetine 10 mg/kg bid
  [^3 H]-DHA Specifically Bound, % Control: 95 % Control
B) 4 days, Fluoxetine 10 mg/kg bid, saline 54.6 ± 3.1, * p < 0.05 vs saline
  [^3 H]-DHA Specifically Bound: 51.8 ± 1.7 fmol/mg protein
